According to the METLIN SMRT retention time set (Domingo-Almenara et al. 2019):

Experiment: gradient 5% acetonitrile 3 min, to 50% in 2 min, to 85% in 15 min, held 3 min, 100 µL/min
Conditions: column: Zorbax Extend-C18 2.1 x 50 mm; eluents: water / acetonitrile, 0.1% formic acid
Procedure, shortened: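 Mixtures of ~100 pure standards were chromatographed on a Zorbax Extend-C18 column (2.1 × 50 mm, 1.8 μm) at 100 μL/min using water and acetonitrile, each with 0.1% formic acid. Detection used a quadrupole time-of-flight mass spectrometer in positive and negative ionization mode, and data collection spanned 3 months. Retention time was obtained from adduct peaks picked computationally and each checked manually.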

Row | Compound | RP-LC retention time
1 | Cn1nc(-c2nnc(-c3ccccc3)o2)c2c1CCN(S(=O)(=O)c1ccc(Cl)s1)C2 | 1010 s
2 | Cc1csc(-n2nc(C)c(CC(=O)Nc3ccc(F)cc3)c2C)n1 | 950 s
3 | CCCCNC(=O)CCCN1C(=O)CCn2nc(C)cc21 | 629 s
4 | CN1CC(=O)NC(c2ccccc2F)C1=O (stereo not drawn) | 513 s
5 | Cc1cc(N2CCN(C(=O)c3ccco3)CC2)nc(N2CCCCC2)n1 | 626 s
6 | CC1CCN(S(=O)(=O)c2cc(-c3nnc(C(C)C)o3)co2)CC1 | 964 s
7 | COc1ccc(N2CCN(C(=O)C3CCN(S(=O)(=O)c4cn(C)cn4)CC3)CC2)cc1 | 628 s
8 | O=C(c1ccco1)N1CCN(c2ncnc3sc(-c4ccccc4)cc23)CC1 | 840 s
9 | CCNc1cc(N2CCC(CCC(=O)N3CCN(c4ncccn4)CC3)CC2)ncn1 | 626 s
10 | COc1ccc(C2Cn3cnc(C(=O)N4CCC(C(=O)NC5CCC(C)CC5)CC4)c3CO2)cc1 (stereo not drawn) | 821 s
11 | CCN1CCCCc2cc(C(=O)N(C)CCN(C)C)sc21 | 638 s
12 | Cc1cc(C)c2c(N3CCCCC3)nc(C(=O)N3CCOCC3)nc2n1 | 608 s
13 | Cc1c(C2CCN(C(=O)c3ccc4c(c3)OCO4)CC2)noc1N | 663 s
14 | CCCc1noc(-c2ccnc(-n3ncc(C(=O)N4CCCC4)c3C)c2)n1 | 896 s
15 | CCn1ccc2sc(C)c(C(=O)NCC3CCCCC3)c2c1=O | 884 s
16 | COCCNC(=O)C1COC2(CCCCC2)N1C(=O)c1cccc(F)c1 (stereo not drawn) | 719 s
17 | CCC1Oc2ccc(S(=O)(=O)N3CCC(C(=O)Nc4ccc(C(C)C)cc4)CC3)cc2NC1=O (stereo not drawn) | 1000 s
18 | CCCCN1N=C(C(=O)N2CCCCCC2)S(=O)(=O)c2ccccc21 | 1030 s
19 | N#Cc1cccc(NC(=O)C2CCN(S(=O)(=O)c3cc(-c4noc(C5CCC5)n4)cs3)CC2)c1 | 1070 s
20 | COC(=O)CNC(=O)c1cc2c(=O)n(CC(C)C)c3ccccc3n2n1 | 807 s
21 | CCCCCNC(=O)c1ccc(Oc2nccnc2N2CCSCC2)cc1 | 1030 s

Row | Compound | RP-LC retention time
22 | Cc1ccc(S(=O)(=O)N2C(=O)CCC2C(=O)N(C)C2CCCCC2)cc1 (stereo not drawn) | 916 s
23 | O=C(C1=CN(c2cccc(F)c2)c2cc(F)ccc2S1(=O)=O)N1CCCCC1 | 872 s
24 | Cn1c(=O)c(N2CCC(NC(=O)Nc3ccccc3Cl)CC2)nc2cccnc21 | 904 s
25 | COc1cccc(CN2CCc3nn(Cc4ccccc4)c(=O)n3CC2)n1 | 580 s
26 | CCNc1cc(N2CCCC(CCC(=O)NC(CC)CC)C2)ncn1 (stereo not drawn) | 658 s
27 | CCC(C)NC(=O)C(=O)NCc1n[nH]c(=O)c2ccccc12 (stereo not drawn) | 649 s
28 | CCN1C(=O)C2CC3(CCN(C(=O)C4CCCCC4)CC3)CN2C1=O (stereo not drawn) | 738 s
29 | COc1cc(OC)cc(C(=O)NC2CCN(c3cc(-c4cccs4)[nH]n3)C2)c1 (stereo not drawn) | 741 s
30 | Cc1ccc(S(=O)(=O)N2CC(F)(F)C[C@H]2CN2CCc3ccccc3C2)cc1 | 766 s
31 | CC1CCN(c2nc3c(c(=O)n(C)c(=O)n3C)n2Cc2ccc(Br)cc2)CC1 | 1250 s
32 | Cc1csc(-c2cc(S(=O)(=O)NC(C)(C)C)cn2CC(=O)N2CCCC2)n1 | 1160 s
33 | CCOc1ccccc1C(=O)n1nc(C)c(S(=O)(=O)N2CCOCC2)c1C | 962 s
34 | O=C(CN1C(=O)CCCc2ccccc21)N1CCN(C(=O)c2ccco2)CC1 | 678 s
35 | Cc1noc(C)c1CN1CCC(NC(=O)Cc2ccc(F)cc2)C1 (stereo not drawn) | 597 s
36 | CC(C)n1c(=O)sc2cc(S(=O)(=O)N3CCC(C(=O)NCc4ccco4)CC3)ccc21 | 861 s
37 | CC(C)(C)C(=O)N1CC(c2nc(-c3ccc(F)cc3)no2)C2(CCOCC2)C1 (stereo not drawn) | 964 s
38 | CN(C)c1cccc(C(=O)N2CCN(S(=O)(=O)C3CC3)CC2)c1 | 630 s
39 | CN1CCN(CCCNC(=O)c2ccc(NC(=O)C3=CSCCO3)cc2)CC1 | 876 s
40 | O=C(NCCCO)c1ccc(CSc2nc3ccccc3[nH]2)cc1 | 562 s
41 | CC(=O)Nc1ccc(N2C(=O)c3cccc4c([N+](=O)[O-])ccc(c34)C2=O)cc1 | 714 s
42 | CCOC(=O)Cn1c(=O)c2c(nc3n2CCN3c2ccc(OC)cc2)n(C)c1=O | 826 s

More lines, now with the values ahead:

Row | RP-LC retention time | Compound
43 | 709 s | COc1ccc(-c2nc3ncccn3c2NCc2ccc(C)cc2)cc1OC
44 | 1010 s | COc1ccc(OC)c(NC(=O)Cn2cccc2-c2nc(-c3ccc4c(c3)OCO4)no2)c1
45 | 1010 s | Brc1ccc(-c2nc(NCCC3=CCCCC3)c3ccccc3n2)cc1
46 | 913 s | Cc1ccc(NC(=O)Cn2c(=O)nc(N3CCC(C)CC3)c3ccccc32)c(C)c1
47 | 1020 s | Cc1cc(C)nc(N2CCN(c3cc(C)nc4c(C)c(-c5ccc(Cl)cc5)nn34)CC2)n1
48 | 735 s | Cc1noc2nc(C)n(CC(=O)NCc3ccc(F)cc3)c(=O)c12
49 | 756 s | Cc1ccc(CNC(=O)c2nc(-c3ccnc(N4CCCCC4)c3)no2)o1
50 | 610 s | COc1ccc(-c2nc(C)cc(C)c2CNC(=O)c2cccs2)cc1
51 | 694 s | Cn1cc(-c2ccc3nnc(C(F)(F)c4ccc5ncccc5c4)n3n2)cn1
52 | 764 s | COc1ccc(-c2cn3c(CC(=O)NCc4cccc(Br)c4)csc3n2)cc1OC
53 | 670 s | COc1ccc(NC(=O)CN2CCC(c3nc(-c4cccs4)no3)CC2)cc1
54 | 755 s | O=C(CCNc1c(-c2cccc(F)c2)nc2cnccn12)NCc1ccc(F)cc1
55 | 598 s | CCn1c(CCNC(=O)c2ccccc2)nc2cccnc21
56 | 1020 s | CC(C)Cn1cc(S(=O)(=O)NCc2ccccc2Cl)c2cccnc21
57 | 882 s | Cc1ccc(CNC(=O)Cn2cccc2-c2nnc(-c3ccccc3)o2)o1
58 | 707 s | O=C(Cc1cccs1)Nc1nnc(Cc2ccc(F)cc2)o1
59 | 742 s | COCCNc1c(-c2cccc(F)c2)nc2sc(C(=O)N(C)C)c(C)n12
60 | 795 s | Cc1nnc(N2CCCC(C(=O)NC(C)c3ccccc3)C2)c2nn(-c3ccc(Cl)cc3)c(C)c12 (stereo not drawn)
61 | 722 s | O=C(NCCn1c(-c2ccccc2)nc2cccnc21)Nc1ccc2c(c1)OCO2
62 | 983 s | COc1ccc(S(=O)(=O)N2CCc3nc(-c4ccc(F)cc4)ncc3C2)cc1OC
63 | 940 s | COc1ccc(-c2nc3ncc4c(=O)n(CCc5c[nH]c6ccccc56)ccc4n3n2)cc1
64 | 1150 s | Cc1ccc(Oc2nccnc2N2CCCC(C(=O)NC(C)c3ccc(C)c(C)c3)C2)cc1 (stereo not drawn)
65 | 658 s | COc1ccc2[nH]c3c(C)c4ccncc4c(C)c3c2c1

Row | RP-LC retention time | Compound
66 | 694 s | Cn1nc(-c2ccc(F)cc2)cc1C(=O)NCc1n[nH]c(=O)c2ccccc12
67 | 616 s | Cc1ccn2cc(-c3ccc(NC(=O)C(C)(C)C)cc3)nc2n1
68 | 694 s | COc1ccc(-c2nc3cc(C)ccn3c2NC(=O)COc2ccccc2)cc1
69 | 902 s | Cc1ccc(Nc2nc(-c3cc(C)ccc3C)cs2)nc1
70 | 834 s | COc1cccc(NC(=O)Cn2c(=O)n(-c3ccc(F)cc3)c(=O)c3c2cc(C)n3C)c1
71 | 813 s | CCCC(=O)OCCCNc1nc(-c2ccc(Cl)cc2)nc2ccccc12
72 | 726 s | Cc1nc(-c2cnccn2)nc2c1CCC(=O)N2Cc1ccccc1F
73 | 831 s | CCCCNC(=O)c1nc(Nc2ccc(C)cc2)c2ccccc2n1
74 | 734 s | O=C(NCc1cccnc1-c1ccc(F)cc1)c1cccc(Br)c1
75 | 786 s | CCOc1ccc(CNC(=O)c2c(C)sc3ccn(C)c(=O)c23)cc1
76 | 1080 s | CCOc1ccc(NC(=O)C2CCN(c3cc(Oc4ccc(CC)cc4)ncn3)CC2)cc1
77 | 1040 s | COc1ccc(NC(=O)Cn2nc3cc(C)nc(Nc4ccc(C)c(F)c4)n3c2=O)cc1
78 | 734 s | COc1ccc2[nH]cc(CCNC(=O)CN3C(=O)c4cccnc4Sc4ccccc43)c2c1
79 | 932 s | O=C(Cn1c(=O)c2cc(-c3cccs3)nn2c2ncccc21)Nc1ccc(Cl)cc1
80 | 713 s | Cc1ccc(S(=O)(=O)Nc2ccc(-c3cn4cccnc4n3)cc2)cc1[N+](=O)[O-]
81 | 760 s | O=C(NCc1ccccn1)c1nnn(Cc2ccc(Cl)cc2)c1-n1cccc1
82 | 1000 s | CSc1ccc(-c2nc3cnccn3c2Nc2ccc(C)cc2)cc1
83 | 1100 s | CSc1cccc(NC(=O)C2CCN(S(=O)(=O)c3ccc(-c4noc(C5CC5)n4)cc3)CC2)c1
84 | 1130 s | COc1ccc(-c2ncc3c(=O)n(Cc4cccc(OC)c4)c(=O)n(C)c3n2)cc1
85 | 1290 s | Cc1ccc(CNC(=O)C2CCCN(c3nc4c(s3)c(C)nn4-c3ccc(Cl)cc3)C2)cc1 (stereo not drawn)
86 | 806 s | Cc1noc(-c2ccc(=O)n(Cc3cccc(C(F)(F)F)c3)c2)n1
87 | 650 s | CC(C)CC(=O)Nc1c(-c2ccc(F)cc2)nc2ccccn12
88 | 1110 s | COc1cc(NC(=O)Nc2nccn(-c3ccc(C(C)C)cc3)c2=O)cc(OC)c1
